Data: patent publication US20240208992A1, “MACROCYCLES AS CFTR MODULATORS” (Idorsia Pharmaceuticals Ltd, priority 2021, published 2024)

Target: human F508del-CFTR (Homo sapiens, UniProt P13569, DEL508-508)
Test: F508del-CFTR cell surface expression (corrector activity), DiscoveRx ß-galactosidase complementation chemiluminescence assay in recombinant U2OS cell line;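 further: U2OS cells co-expressing ProLink-tagged F508del-CFTR and a membrane-anchored enzyme acceptor, where more surface CFTR restores β-galactosidase activity measured by chemiluminescence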
Conditions: for EC50: EC50, F508del-CFTR cell surface expression; for Emax: U2OS
[1] = U2OS cells, 16h compound incubation, geomean values
[2] = in relation to Emax of corrector lumacaftor (=100%), arithmetic mean values
[3] = U2OS cell line, 16h compound incubation, geomean values
[4] = in relation to the Emax of the corrector lumacaftor (=100%), U2OS cell line, 16h compound incubation, arithmetic mean values

Sequence of human F508del-CFTR (P13569 with tags, fused parts or gaps DEL508-508): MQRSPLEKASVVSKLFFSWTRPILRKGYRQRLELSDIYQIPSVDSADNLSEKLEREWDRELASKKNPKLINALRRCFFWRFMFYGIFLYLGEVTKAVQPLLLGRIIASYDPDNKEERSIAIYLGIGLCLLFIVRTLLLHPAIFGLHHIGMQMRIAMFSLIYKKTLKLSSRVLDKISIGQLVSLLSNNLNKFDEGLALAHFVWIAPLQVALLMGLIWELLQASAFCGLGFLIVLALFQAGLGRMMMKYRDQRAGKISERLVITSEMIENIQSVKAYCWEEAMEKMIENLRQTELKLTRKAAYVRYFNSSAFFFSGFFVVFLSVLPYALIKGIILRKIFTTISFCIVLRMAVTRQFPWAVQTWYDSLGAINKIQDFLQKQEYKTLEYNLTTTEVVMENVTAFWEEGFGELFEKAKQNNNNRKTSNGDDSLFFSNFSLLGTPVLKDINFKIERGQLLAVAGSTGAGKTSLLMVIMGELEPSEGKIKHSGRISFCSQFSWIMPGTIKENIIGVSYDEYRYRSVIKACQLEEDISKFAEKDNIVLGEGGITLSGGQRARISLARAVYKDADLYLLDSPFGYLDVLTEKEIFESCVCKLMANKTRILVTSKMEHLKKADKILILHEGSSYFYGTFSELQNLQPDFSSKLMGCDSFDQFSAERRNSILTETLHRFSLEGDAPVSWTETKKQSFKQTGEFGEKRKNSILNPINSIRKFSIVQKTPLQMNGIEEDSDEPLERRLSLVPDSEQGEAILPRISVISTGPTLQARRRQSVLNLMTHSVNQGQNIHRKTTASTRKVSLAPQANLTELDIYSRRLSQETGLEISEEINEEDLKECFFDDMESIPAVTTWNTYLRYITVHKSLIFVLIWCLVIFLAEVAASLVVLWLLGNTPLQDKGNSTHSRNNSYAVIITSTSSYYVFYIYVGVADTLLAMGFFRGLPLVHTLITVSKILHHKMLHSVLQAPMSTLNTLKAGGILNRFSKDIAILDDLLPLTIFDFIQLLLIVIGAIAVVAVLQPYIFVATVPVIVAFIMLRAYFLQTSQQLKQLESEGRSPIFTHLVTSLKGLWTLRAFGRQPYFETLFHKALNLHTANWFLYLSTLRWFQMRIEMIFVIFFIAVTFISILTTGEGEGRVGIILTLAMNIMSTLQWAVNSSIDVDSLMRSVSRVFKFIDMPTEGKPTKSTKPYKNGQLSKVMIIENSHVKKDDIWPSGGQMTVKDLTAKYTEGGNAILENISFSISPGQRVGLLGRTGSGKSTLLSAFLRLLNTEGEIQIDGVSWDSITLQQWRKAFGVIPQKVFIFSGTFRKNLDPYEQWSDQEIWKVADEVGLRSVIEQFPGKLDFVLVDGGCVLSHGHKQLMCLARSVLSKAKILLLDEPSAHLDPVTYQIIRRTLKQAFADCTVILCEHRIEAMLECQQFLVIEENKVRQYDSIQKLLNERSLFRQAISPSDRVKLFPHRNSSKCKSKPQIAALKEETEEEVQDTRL

COc1noc(CCNC(=O)[C@@H]2CC(=O)N(C)[C@@H](CC(C)C)C(=O)N(C)[C@H](CC(F)(F)F)C(=O)N[C@H](Cc3ccccc3)COc3ccc4ncc(F)cc4c3C(=O)N2)n1 [Example 941, (3S,7S,10R,13R)-13-benzyl-20-fluoro-7-isobutyl-N-(2-(3-methoxy-1,2,4-oxadiazol-5-yl)ethyl)-6,9-dimethyl-1,5,8,11-tetraoxo-10-(2,2,2-trifluoroethyl)-1,2,3,4,5,6,7,8,9,10,11,12,13,14-tetradecahydro-[1]oxa[4,7,10,14]tetraazacycloheptadecino[16,17-f]quinoline-3-carboxamide]
EC50 (U2OS cells, 16h compound incubation, geomean of several measurements): 135 nM
Emax (in relation to the Emax of the corrector lumacaftor (=100%), U2OS cells, 16h compound incubation, arithmetic mean): 459%

COc1cccc(CCNC(=O)[C@@H]2CC(=O)N(C)[C@@H](CC(C)C)C(=O)N3CCN(S(=O)(=O)c4cccc(OC)c4)C[C@@H]3C(=O)N[C@H](Cc3ccccc3)COc3ccc4ccccc4c3C(=O)N2)c1 [Example 739, (4aR,7R,18S,22S)-7-benzyl-22-isobutyl-N-(3-methoxyphenethyl)-3-((3-methoxyphenyl)sulfonyl)-21-methyl-5,16,20,23-tetraoxo-2,3,4,4a,5,6,7,8,16,17,18,19,20,21,22,23-hexadecahydro-1H-naphtho[1,2-p]pyrazino[2,1-f][1]oxa[4,7,10,14]tetraazacycloheptadecine-18-carboxamide]
EC50 [1]: 101 nM
Emax [2]: 297%

COc1cccc(CCNC(=O)[C@@H]2CC(=O)N(C)[C@@H](CC(C)C)C(=O)N3CCCC[C@@H]3C(=O)N[C@H](Cc3ccccc3)COc3ccc4c(c3C(=O)N2)OCC4)c1 [Example 456, (8S,12S,18aR,21R)-21-benzyl-12-isobutyl-N-(3-methoxyphenethyl)-11-methyl-6,10,13,19-tetraoxo-3,4,6,7,8,9,10,11,12,13,16,17,18,18a,19,20,21,22-octadecahydro-15H-benzofuro[7,6-p]pyrido[2,1-f][1]oxa[4,7,10,14]tetraazacycloheptadecine-8-carboxamide]
EC50 [1]: 250 nM
Emax [2]: 185%

Cc1cc(CCNC(=O)[C@@H]2CC(=O)N(C)[C@@H](CC(C)C)C(=O)N3CCCC[C@@H]3C(=O)N[C@H](Cc3ccccc3)COc3ccc4c(cnn4C)c3C(=O)N2)on1 [Example 429, (8S,12S,18aR,21R)-21-benzyl-12-isobutyl-3,11-dimethyl-N-(2-(3-methylisoxazol-5-yl)ethyl)-6,10,13,19-tetraoxo-6,7,8,9,10,11,12,13,16,17,18,18a,19,20,21,22-hexadecahydro-3H,15H-pyrido[2′,11:6,7][1]oxa[4,7,10,14]tetraazacycloheptadecino[16,17-e]indazole-8-carboxamide]
EC50 [1]: 606 nM
Emax [2]: 224%

COc1cccc2c1C(=O)N[C@H](C(=O)NCCc1nc3ccccc3o1)CC(=O)N(C)[C@@H](CC(C)C)C(=O)N(CCC1CCCCC1)CC(=O)N[C@H](Cc1ccccc1)CO2 (mixture of isomers) [Example 16, (3R,9S,13RS)-N-(2-(benzo[d]oxazol-2-yl)ethyl)-3-benzyl-7-(2-cyclohexylethyl)-9-isobutyl-16-methoxy-10-methyl-5,8,11,15-tetraoxo-2,3,4,5,6,7,8,9,10,11,12,13,14,15-tetradecahydrobenzo[p][1]oxa[4,7,10,14]tetraazacycloheptadecine-13-carboxamide]
EC50 [3]: 269 nM

Cc1nc2ccc3c(c2o1)C(=O)N[C@H](C(=O)NCCc1cccc([C@H](C)O)c1)CC(=O)N(C)[C@@H](CC(C)C)C(=O)N(CCC1CCCCC1)CC(=O)N[C@H](Cc1ccccc1)CO3 (racemic) [Example 728, (8R,14S,18S)-8-benzyl-12-(2-cyclohexylethyl)-N-(3-((RS)-1-hydroxyethyl)phenethyl)-14-isobutyl-2,15-dimethyl-10,13,16,20-tetraoxo-7,8,9,10,11,12,13,14,15,16,17,18,19,20-tetradecahydrooxazolo[4′,5′:5,6]benzo[1,2-p][1]oxa[4,7,10,14]tetraazacycloheptadecine-18-carboxamide]
EC50 [1]: 235 nM
Emax [2]: 232%

COc1cccc(CCNC(=O)[C@@H]2CC(=O)N(C)[C@@H](CC(C)C)C(=O)N3CCCC[C@H]3C(=O)N[C@H](Cc3ccccc3)COc3cc(OC)cc(OC)c3C(=O)N2)c1 [Example 601, (7S,11S,20R,22aS)-20-benzyl-7-isobutyl-14,16-dimethoxy-N-(3-methoxyphenethyl)-8-methyl-6,9,13,22-tetraoxo-1,3,4,6,7,8,9,10,11,12,13,19,20,21,22,22a-hexadecahydro-2H-benzo[p]pyrido[2,1-f][1]oxa[4,7,10,14]tetraazacycloheptadecine-11-carboxamide]
EC50 [1]: 589 nM
Emax [2]: 138%

COc1cccc(CCNC(=O)[C@@H]2CC(=O)N(C)[C@@H](CC(C)C)C(=O)N3CCN(C4CC4)C[C@@H]3C(=O)N[C@H](Cc3ccccc3)COc3ccc4ncn(C)c4c3C(=O)N2)c1 [Example 348, (8S,12S,18aR,21R)-21-benzyl-17-cyclopropyl-12-isobutyl-N-(3-methoxyphenethyl)-5,11-dimethyl-6,10,13,19-tetraoxo-6,7,8,9,10,11,12,13,16,17,18,18a,19,20,21,22-hexadecahydro-5H,15H-imidazo[4′,5′:5,6]benzo[1,2-p]pyrazino[2,1-f][1]oxa[4,7,10,14]tetraazacycloheptadecine-8-carboxamide]
EC50 [3]: 340 nM
Emax [4]: 155%

[2H]C([2H])([2H])Oc1nc(C)cc2c1C(=O)N[C@H](C(=O)NCCc1cc(C3CC3)on1)CC(=O)N(C)[C@@H](CC(C)C)C(=O)N1CCCC[C@@H]1C(=O)N[C@H](Cc1ccccc1)CO2 [Example 664, (7S,11S,17aR,20R)-20-benzyl-N-(2-(5-cyclopropylisoxazol-3-yl)ethyl)-11-isobutyl-4-(methoxy-d3)-2,10-dimethyl-5,9,12,18-tetraoxo-5,6,7,8,9,10,11,12,15,16,17,17a,18,19,20,21-hexadecahydro-14H-dipyrido[2,1-f:3′,4′-p][1]oxa[4,7,10,14]tetraazacycloheptadecine-7-carboxamide]
EC50 [1]: 231 nM
Emax [2]: 291%

CC(C)C[C@H]1C(=O)N2CCCC[C@H]2C(=O)N[C@H](Cc2ccccc2)COc2cnc3c(F)cccc3c2C(=O)N[C@H](C(=O)NCCc2ccc(-n3nccn3)cc2)CC(=O)N1C [Example 522, (9S,13S,19aR,22R)-N-(4-(2H-1,2,3-triazol-2-yl)phenethyl)-22-benzyl-3-fluoro-13-isobutyl-12-methyl-7,11,14,20-tetraoxo-7,8,9,10,11,12,13,14,17,18,19,19a,20,21,22,23-hexadecahydro-16H-pyrido[2′,1′:6,7][1]oxa[4,7,10,14]tetraazacycloheptadecino[17,16-c]quinoline-9-carboxamide]
EC50 [1]: 204 nM
Emax [2]: 237%

COc1ccc(CCNC(=O)[C@@H]2CC(=O)N(C)[C@@H](CC(C)C)C(=O)N3CCCC[C@@H]3C(=O)N[C@H](Cc3ccccc3)COc3cnc4ccccc4c3C(=O)N2)cc1C [Example 95, (9S,13S,19aR,22R)-22-benzyl-13-isobutyl-N-(4-methoxy-3-methylphenethyl)-12-methyl-7,11,14,20-tetraoxo-7,8,9,10,11,12,13,14,17,18,19,19a,20,21,22,23-hexadecahydro-16H-pyrido[2′,1′:6,7][1]oxa[4,7,10,14]tetraazacycloheptadecino[17,16-c]quinoline-9-carboxamide]
EC50 [3]: 250 nM
Emax [4]: 178%

Cc1cc(CCNC(=O)[C@@H]2CC(=O)N(C)[C@@H](CC(C)C)C(=O)N(C[C@H]3CCCCO3)CC(=O)N[C@H](Cc3ccccc3)COc3cnc4ccccc4c3C(=O)N2)on1 [Example 445, (3S,7S,13R)-13-benzyl-7-isobutyl-6-methyl-N-(2-(3-methylisoxazol-5-yl)ethyl)-1,5,8,11-tetraoxo-9-(((R)-tetrahydro-2H-pyran-2-yl)methyl)-1,2,3,4,5,6,7,8,9,10,11,12,13,14-tetradecahydro-[1]oxa[4,7,10,14]tetraazacycloheptadecino[17,16-c]quinoline-3-carboxamide]
EC50 [1]: 958 nM
Emax [2]: 194%

CN1C(=O)C[C@@H](C(=O)NCCc2ccc3c(c2)OCO3)NC(=O)c2c(ccc3ccccc23)OC[C@@H](Cc2ccccc2)NC(=O)CN(C[C@@H]2CCCCO2)C(=O)[C@@H]1CC1CCCC1 (racemic) [Example 284, (3RS,7S,13R)-N-(2-(benzo[d][1,3]dioxol-5-yl)ethyl)-13-benzyl-7-(cyclopentylmethyl)-6-methyl-1,5,8,11-tetraoxo-9-(((S)-tetrahydro-2H-pyran-2-yl)methyl)-1,2,3,4,5,6,7,8,9,10,11,12,13,14-tetradecahydronaphtho[1,2-p][1]oxa[4,7,10,14]tetraazacycloheptadecine-3-carboxamide]
Emax [4]: 136%

COc1nccc2c1C(=O)N[C@H](C(=O)NCCc1cc(C3CC3)no1)CC(=O)N(C)[C@@H](CC(C)C)C(=O)N1CCC3(CC3)C[C@@H]1C(=O)N[C@H](Cc1ccccc1)CO2 (single isomer, unassigned) [Example 669, (7′S,11′S,17a′S,20′R)-20′-benzyl-N-(2-(3-cyclopropylisoxazol-5-yl)ethyl)-11′-isobutyl-4′-methoxy-10′-methyl-5′,9′,12′,18′-tetraoxo-5′,6′,7′,8′,9′,10′,11′,12′,14′,15′,17′,17a′,18′,19′,20′,21′-hexadecahydrospiro[cyclopropane-1,16′-dipyrido[2,1-f:3′,4′-p][1]oxa[4,7,10,14]tetraazacycloheptadecine]-7′-carboxamide]
EC50 [1]: 856 nM
Emax [2]: 230%

COc1cccc(CCNC(=O)[C@@H]2CC(=O)N(C)[C@@H](CC(C)C)C(=O)N(C)CC(=O)N[C@H](Cc3ccccc3)COc3nccc(OC)c3C(=O)N2)c1 [Example 513, (3R,9S,13S)-3-benzyl-9-isobutyl-16-methoxy-N-(3-methoxyphenethyl)-7,10-dimethyl-5,8,11,15-tetraoxo-2,3,4,5,6,7,8,9,10,11,12,13,14,15-tetradecahydropyrido[3,2-p][1]oxa[4,7,10,14]tetraazacycloheptadecine-13-carboxamide]
EC50 [1]: 815 nM
Emax [2]: 169%
